Marks after values point to notes of the source that are not given here. Residues, ends and D or L forms follow the SMILES beside them.
Assays:
[1] = system: patients suffering aspirin bronchial asthma; assay: Clinical application in patients suffering aspirin bronchial asthma; format: in vivo
[2] = system: blood anti-oxidation defence indices; assay: Blood anti-oxidation defence indices in patients with age-related pathology; format: in vivo; conditions: 10 μg intramuscularly daily for 10 days
Experimental: The studied pharmacological substance was administered to 14 patients (34 to 69 years old) with age-related pathology (hypertension disease, ischemic heart disease, chronic gastritis, non-insulin-dependent diabetes mellitus) and reduction of the anti-oxidation defence indices in blood.
The substance containing L-Ala-L-Glu-L-Asp-Gly tetrapeptide (SEQ ID NO: 1) was administered intramuscularly in the form of an injection solution in a single daily dose of 10 μg per injection for 10 days.

[3] = system: Drosophila melanogaster of LA strain; assay: Life span and ageing rate, LA strain; format: in vivo; conditions: for ALS / Me / LSmax (maximal life span): 0.00001% of medium weight; for LSmax (maximal life span): in days
Text: The impact produced by L-Ala-L-Glu-L-Asp-Gly tetrapeptide (SEQ ID NO: 1) on catalase activity, the content of the products of lipid peroxide oxidation (LPO), life span, and the ageing rate were studied in Drosophila melanogaster of LA strain.
One-day old flies were placed in test tubes, 10 individuals of the same sex in each. Every 2 days they were transferred to a fresh medium taking into consideration the number of deceased individuals. The average and maximal life spans were defined. The ageing rate was calculated by the parameters of Gomperz equation.
L-Ala-L-Glu-L-Asp-Gly tetrapeptide (SEQ ID NO: 1) was applied in the larvae of the 3rd age in dose 0.00001% of the culture medium weight, which constituted approximately 0.015 mg/100 ml. Catalase activity was estimated by generally accepted methods in the homogenates of adult 14 days old flies. The experiment was carried out with a subsequent repetition.
Regression and dispersal analyses served as the basic technique of statistic processing. The authenticity of differences was confirmed by the method of minimal relevant diversity.

[4] = system: gastric EC-cells; assay: Extra-pineal synthesis of melatonin: enteroendocrine and serotonin-positive cell density in stomach after epiphysectomy; format: in vivo, male Wistar rats; conditions: for NEND/1 mm^2 (density of entero-endocrine cells), Fundal / NEND/1 mm^2 (density of entero-endocrine cells), Pyloric / Nser/1 mm^2 (density of serotonin-positive cells), Pyloric: 0.5 μg subcutaneously 10 days
Experimental: The research was carried out on male Wistar rats weighing 130-140 g. The total number of the animals (23) was divided into 5 groups. The 1st group (control) included intact animals. The animals of groups 2-5 underwent epiphysectomy (EE). In 3 weeks after the surgery (on the 21st day) the animals of the 2nd and 3rd groups were subcutaneously injected with sodium chloride in dose 0.5 ml for the next 10 days. The animals of groups 4 and 5 were administered with L-Ala-L-Glu-L-Asp-Gly tetrapeptide (SEQ ID NO: 1) in dose 0.5 μg according to the same scheme.
Slaughtering of the animals and isolation of their organs were conducted from 10 a.m. to 12 noon by daylight with the use of Nembutal anaesthesia (50 mg/kg). The animals of groups 1, 2 and 4 were slaughtered in 3 days upon the final drug administration (on the 33rd day after the operation and the onset of the experiment), while the animals of groups 3 and 5-in 12 days (on the 42nd day after epiphysectomy). Examined were the main organs of the diffuse neuroendocrine system (DNES): stomach, thyroid gland, and pancreas.
The surgery—epiphysectomy—was conducted under ether anaesthesia according to the devised technique. A 1-1.5 cm long incision was made along the central line of the head. Upon the uncovering of the scull cap an aperture was drilled over the sinus confluence point by means of a hollow 0.5 cm-diameter auger, which was manufactured of a metal tube especially for the experiment. The epiphysis was extracted by means of ophthalmic forceps through the opening in the cranium. The trepanation aperture was covered with an osteal fragment. The skin incision was sewn with silk threads.
Fragments of the extracted organs were fixed for 24 hours in Buen sour liquid for optic microscopy and according to Karnovsky for electron microscopy. Material dehydration and filling it in with paraffin for optic microscopy, as well as epone mixture for ultra-structural examination were prepared according to generally accepted techniques. Paraffin sections (7 μm) were placed on a microscope slide covered with a poly-L-lysine film (Sigma). Ultra-thin sections (100 nm) prepared on LKB-7A microtome (LKB) were contrasted with uranyl acetate and plumbum citrate.
Histological and immunohistochemical examinations were carried out with a Jenamed-2 microscope (Zeiss). Electron-microscopic examination was conducted with a electronic JEM-100S microscope (JEOL).
For staining hematoxyline-eosin was applied. The total population of APUD-cytes in the pyloric and fundal stomach sections was determined according to Grimelius' histochemical silvering method (25).
Immunohistochemical exposure of enterochromophine-cells (EC-cells) was conducted by applying uniclonic antibodies of mice to serotonin (Dako, 1:15 titre). The uniclonic antibodies were identified according to avidin-biotin-peroxidase (ABP) method (Vectastain kit) in order to measure immune serum globulins of mice.
The quantitative studies were carried out by means of computer analysis system of microscopic imprints (Imstar) with the use of Morphostar and Colquant (Imstar) applied licensed computer programmes, in accordance with the basic principles of stereology and morphometry (26).
The quantitative density of enteroendocrine (END) (NEND/1 mm^2) and serotonin-positive cells (Nser/1 mm^2) was estimated in 10 visual fields. The test area (S) constituted 5 mm^2.
For the statistical processing of the acquired data the non-parametric U-criterion by Mann/Whitney was applied.

[5] = 10 μg intramuscularly daily for 10 days
[6] = epiphysectomised rats, 3rd day upon the end of drug administration
[7] = epiphysectomised rats, 12th day upon the end of drug administration

C[C@H](N)C(=O)N[C@@H](CCC(=O)O)C(=O)N[C@@H](CC(=O)O)C(=O)NCC(=O)O [L-Ala-L-Glu-L-Asp-Gly tetrapeptide, L-alanyl-L-glutamyl-L-aspartyl-glycine] (H-AEDG-OH)
Clinical state by the end of the treatment [1, 5]: improvement in clinical state by the end of the treatment was observed in the overwhelming majority of patients | External respiratory function (VBC, MVexhR, FEV1, TV/TLC) immediately after treatment [1, 5]: did not reveal any essential alterations | Reaction to Berotek on the level of distal bronchi [1, 5]: showed an improvement | Excretion of 6-sulfatoxymelatonin in urine ([1]; at night and in the daytime): increased | Activity of superoxide dismutase, After treatment ([2]; before treatment 0.26): 0.61* conv. unit/mg of protein | Products of spontaneous lipid peroxide oxidation: Schiff bases, After treatment ([2]; before treatment 4.6 ± 0.3): 2.9 ± 0.2 μM/l | Products of spontaneous lipid peroxide oxidation: conjugated hydroperoxides, After treatment ([2]; before treatment 7.3 ± 0.6): 2.5 ± 0.2 μM/l | LSmax without taking into consideration intersexual distinctions ([3]; both sexes): notably extended | G 10^2 (parameter of Gomperz equation) ([3]; females): 4.3 ± 0.90 days^−1 | LnR0 (parameter of Gomperz equation) ([3]; females): -3.806 ± 0.2580 day⁻¹ | MRDT ([3]; females): 3.8 | Type of geroprotector (survival rate curves and Gomperz charts) ([3]; females): geroprotector of the 1st type | ALS ([3]; females): 20 ± 1.3 days | Me ([3]; females): 17 days | LSmax (maximal life span) ([3]; females): 44 ± 1.9 | G 10^2 (parameter of Gomperz equation) ([3]; males): 10.9 ± 3.45 days^−1 | LnR0 (parameter of Gomperz equation) ([3]; males): −5.496 ± 0.711 days^1 | MRDT ([3]; males): 2.9 | Type of geroprotector (survival rate curves and Gomperz charts) ([3]; males): geroprotector of the 3rd type | ALS ([3]; males): 24 ± 0.96 days | Me ([3]; males): 28.5 days | LSmax (maximal life span) ([3]; males): 33 ± 0.9 | Extra-pineal synthesis of serotonin and melatonin in gastric EC-cells ([4]; epiphysectomised rats): promotes the extra-pineal synthesis of serotonin and melatonin | NEND/1 mm^2 (density of entero-endocrine cells), Fundal [4, 6]: 64 ± 5 /1 mm^2 | NEND/1 mm^2 (density of entero-endocrine cells), Pyloric [4, 6]: 21 ± 1 /1 mm^2 | Nser/1 mm^2 (density of serotonin-positive cells), Pyloric [4, 6]: 26 ± 2 /1 mm^2 | NEND/1 mm^2 (density of entero-endocrine cells), Fundal [4, 7]: 47 ± 9 /1 mm^2 | NEND/1 mm^2 (density of entero-endocrine cells), Pyloric [4, 7]: 19 ± 1 /1 mm^2 | Nser/1 mm^2 (density of serotonin-positive cells), Pyloric [4, 7]: 26 ± 3 /1 mm^2 | Effect on the epiphysectomy impact on DNES cells ([4]; within 3 days upon the end of administration, maintained for 12 days): complete suppression of the epiphysectomy impact

Source: patent US6727227B1, “Tetrapetide revealing geroprotective effect, pharmacological substance on its basis, and the method of its application” (Obschestvo S Ogranichennoi Otvetstven-Nostiju “Klinika …, priority 2002, dated 2004)
